Results published in patent publication US5476944A, “Derivatives of cyclic phenolic thioethers” (G. D. Searle & Co., priority 1994, dated 1995).

Biological target: T1, COX-II (Homo sapiens, UniProt P35354)
T1 construct: made in house; host or cells: SF9 insect cells, recombinant baculovirus (pVL1393); coding fragment from Cayman Chemical
T1 sequence (P35354 18-604): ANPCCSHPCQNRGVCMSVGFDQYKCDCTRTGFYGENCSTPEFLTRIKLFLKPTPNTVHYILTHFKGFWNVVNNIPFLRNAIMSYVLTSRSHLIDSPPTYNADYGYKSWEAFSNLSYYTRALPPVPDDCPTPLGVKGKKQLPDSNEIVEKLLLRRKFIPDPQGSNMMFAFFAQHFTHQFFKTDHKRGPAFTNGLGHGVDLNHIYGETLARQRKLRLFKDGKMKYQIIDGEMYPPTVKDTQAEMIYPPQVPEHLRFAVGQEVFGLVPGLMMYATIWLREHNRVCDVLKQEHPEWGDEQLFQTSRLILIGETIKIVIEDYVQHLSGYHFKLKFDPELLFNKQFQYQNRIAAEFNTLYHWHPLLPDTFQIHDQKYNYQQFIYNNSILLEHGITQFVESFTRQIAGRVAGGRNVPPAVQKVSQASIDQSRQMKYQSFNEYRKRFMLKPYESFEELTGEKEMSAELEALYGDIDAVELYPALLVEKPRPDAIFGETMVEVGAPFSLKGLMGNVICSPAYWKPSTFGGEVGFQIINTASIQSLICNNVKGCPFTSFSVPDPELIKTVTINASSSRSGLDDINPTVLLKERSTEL
Assay: Human Enzyme Assay, recombinant COX-II (PGE2 ELISA)
Format: biochemical
Experimental: The compounds of the invention are evaluated with respect to COX-I and COX-II activity in vitro using an enzyme based assay according to the following assay procedure.
(a) Preparation of Recombinant COX Baculoviruses
A 2.0 kb fragment containing the coding region for either human or murine COX-I (Caymen Chemical, Ann Arbor, Mich.), or human or murine COX-II (Caymen Chemical, Ann Arbor, Mich.), was cloned into a BamH1 site of the baculovirus transfer vector pVL1393 (Invitrogen, Palo Alto, Calif.) to generate a baculovirus transfer vector. Recombinant baculoviruses were isolated by transfecting 4 μg of baculovirus transfer vector DNA into SF9 cells (2×10e8) (Invitrogen, Palo Alto, Calif.) along with 200 ng of linearized bacium by the phosphate method. See M. D. Summers et al., "A Manual of Methods for Baculovirus Vectors and Insect Cell Culture Procedure," TEXAS AGRICULTURE EXPERIMENTAL STATION BULLETIN, No. 1555 (1987), which is incorporated herein by reference. Recombinant viruses were purified by three rounds of plaque purification, and high titer (10e7-10e8 pfu/ml) stocks of virus were prepared. For large scale production, SF9 insect cells (Invitrogen, Palo Alto, Calif.) were infected in 10 liter fermentors (0.5×10^6 /ml) with the recombinant baculovirus stock, such that the multiplicity of infection was 0.1. After 72 hours, the cells were centrifuged and the cell pellet was homogenized in Tris/Sucrose (50 mM: 25%, pH 8.0) containing 1% CHAPS. The homogenate was centrifuged at 10,000×G for 30 minutes, and the resultant supernatant was stored at -80° C. before being assayed for COX activity.
b. Assay for COX-I and COX-II activity:
COX activity was assayed as PGE2 formed/μg protein/time using an ELISA (Caymen Chemical, Ann Arbor, Mich.) to detect the prostaglandin E2 released. CHAPS-solubilized insect cell membranes containing the appropriate COX enzyme were incubated in a potassium phosphate buffer (50 mM, pH 8.0) containing phenol (0.5 mM), and heme (1 μM) with the addition of arachidonic acid (10 μM). Compounds of the present invention were pre-incubated with the enzyme for 10-20 minutes prior to the addition of the COX-I and COX-II enzyme substrate arachidonic acid (10 μM). Any reaction between the arachidonic acid and the enzyme was stopped after ten minutes at 37° C./room temperature by transferring 40 μl of reaction mix into […] ELISA buffer and 25 μM indomethacin. The PGE2 formed was measured by standard ELISA technology (Cayman Chemical, Ann Arbor, Mich.).
The results for this assay, as well as for the next assay (COX-II Cell Fibroblast Assay) are expressed in terms of COX-I or II activity as an IC50 value (50% inhibitory concentration), as defined as the amount of prostaglandin E2 (PGE2) formed per protein per time in response to the enzyme substrate arachidonic acid.

IC50: 4.11 µM
SMILES: CC(C)(C)c1cc(S[C@H]2CCCC[C@H]2OCC(=O)O)cc(C(C)(C)C)c1 (racemic) [Example 72, (±)cis-2-[[2-[[3,5-bis(1,1-dimethylethyl)phenyl]thio]cyclohexyl]oxy]acetic acid]
